Source: ChEMBL document CHEMBL1129381, “Novel (R)-2-amino-5-fluorotetralins: dopaminergic antagonists and inverse agonists” (J Med Chem, 1996)

Legend:
[1] = molecular target: T1, D(2) dopamine receptor (Homo sapiens, UniProt P14416); assay: Hill coefficients for [3H]-raclopride binding to dopamine D2 receptor high-and low-affinity agonist states
[2] = molecular target: T2, D(3) dopamine receptor (Homo sapiens, UniProt P35462)
[3] = molecular target: T3, 5-hydroxytryptamine receptor 1A (Rattus norvegicus, UniProt P19327); assay: Inhibition of [3H]8-OH-DPAT binding to 5-hydroxytryptamine 1A receptor
T3 sequence (P19327 whole entry): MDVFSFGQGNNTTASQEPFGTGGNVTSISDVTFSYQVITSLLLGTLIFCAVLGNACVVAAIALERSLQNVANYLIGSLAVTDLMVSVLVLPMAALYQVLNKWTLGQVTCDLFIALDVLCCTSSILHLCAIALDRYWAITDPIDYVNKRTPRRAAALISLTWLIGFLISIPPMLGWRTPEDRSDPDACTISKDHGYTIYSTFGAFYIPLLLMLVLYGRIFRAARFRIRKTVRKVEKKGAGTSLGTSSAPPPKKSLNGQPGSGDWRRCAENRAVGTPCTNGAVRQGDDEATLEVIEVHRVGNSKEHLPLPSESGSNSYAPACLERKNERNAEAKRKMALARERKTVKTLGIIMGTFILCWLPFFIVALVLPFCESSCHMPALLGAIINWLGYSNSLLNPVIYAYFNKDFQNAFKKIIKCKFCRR

[4] = molecular target: T1, D(2) dopamine receptor
[5] = molecular target: T2, D(3) dopamine receptor; remark: listed apart in the source
[6] = molecular target: T1, D(2) dopamine receptor; remark: listed apart in the source
[7] = molecular target: T1, D(2) dopamine receptor; assay: Inhibition of [3H]raclopride binding to Dopamine receptor D2

T2 sequence (P35462 whole entry): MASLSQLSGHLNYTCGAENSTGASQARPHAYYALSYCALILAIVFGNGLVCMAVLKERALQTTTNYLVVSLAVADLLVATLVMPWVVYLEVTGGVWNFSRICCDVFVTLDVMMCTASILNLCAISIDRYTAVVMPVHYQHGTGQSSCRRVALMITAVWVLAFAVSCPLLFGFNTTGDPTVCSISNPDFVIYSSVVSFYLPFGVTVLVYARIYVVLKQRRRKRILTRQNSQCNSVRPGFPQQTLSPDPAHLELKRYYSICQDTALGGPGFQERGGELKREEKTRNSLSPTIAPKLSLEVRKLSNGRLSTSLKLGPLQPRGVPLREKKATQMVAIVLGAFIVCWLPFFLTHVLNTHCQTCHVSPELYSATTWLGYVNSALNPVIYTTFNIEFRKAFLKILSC
T1 sequence (P14416 whole entry): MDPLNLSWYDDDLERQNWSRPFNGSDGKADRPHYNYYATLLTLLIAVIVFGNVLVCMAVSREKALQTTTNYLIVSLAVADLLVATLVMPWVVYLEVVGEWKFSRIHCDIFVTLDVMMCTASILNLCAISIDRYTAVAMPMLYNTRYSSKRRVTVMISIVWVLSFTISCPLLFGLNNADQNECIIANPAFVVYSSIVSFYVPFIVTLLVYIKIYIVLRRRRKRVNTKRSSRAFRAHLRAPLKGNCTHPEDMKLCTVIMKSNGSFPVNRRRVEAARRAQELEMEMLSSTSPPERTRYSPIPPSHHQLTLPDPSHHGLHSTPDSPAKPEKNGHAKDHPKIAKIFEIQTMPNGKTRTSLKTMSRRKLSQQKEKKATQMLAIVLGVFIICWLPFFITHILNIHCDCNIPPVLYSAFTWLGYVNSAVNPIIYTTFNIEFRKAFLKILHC

Structure (SMILES)	nH [1]	Ki [2] [nM]	Ki [3] [nM]	Ki [4] [nM]	nH [5]	Ki [6] [nM]	Ki [7] [nM]
NCCc1ccc(O)c(O)c1	0.66						
CCCN(C(C)C)[C@@H]1CCc2c(F)cccc2C1	0.94	199	644	4720	0.91	1530	
CCCN[C@@H]1CCc2c(F)cccc2C1	0.86	35.8	108	582	0.92	167	
CCCCN[C@@H]1CCc2c(F)cccc2C1	0.93	158	440	790	0.79	254	
CCCN(CCC)[C@@H]1CCc2c(F)cccc2C1	0.89	8.62	30.2	201	1.03	26	
O=C1CC2(CCCC2)CC(=O)N1CCCCN[C@@H]1CCc2c(F)cccc2C1	0.88	4.94	6.46		0.88	37	68.2
Fc1cccc2c1CC[C@@H](NCc1ccccc1)C2	0.81	1050	494	2830	0.88	779	
CCCCN(CCC)[C@@H]1CCc2c(F)cccc2C1	0.91	4.42	44.5	210	0.98	45.6	
CC(C)N[C@@H]1CCc2c(F)cccc2C1	0.88	1450	627	5940	0.9		
CCCN(Cc1ccccc1)[C@@H]1CCc2c(F)cccc2C1	0.86	23.8	28.8	415	0.92	179	
CCCN(CCCCN1C(=O)CC2(CCCC2)CC1=O)[C@@H]1CCc2c(F)cccc2C1	0.87	0.251	0.246		0.92	4.94	16.9
N[C@@H]1CCc2c(F)cccc2C1	0.81	150	525	864	0.99	585	
